ChEMBL document CHEMBL5143510, “Structure modification and biological evaluation of indole-chalcone derivatives as anti-tumor agents through dual targeting tubulin and TrxR” (Eur J Med Chem, 2022)
Calls of active or inactive are those of the source. No cut-off for these calls is given here.

Assays:
[1] = test system: A549; assay: Antiproliferative activity against human A549 cells assessed as reduction in cell viability incubated for 48 hrs by MTT assay; assay type: functional, cell-based; details: A549, 48 h
[2] = test system: HeLa; assay: Antiproliferative activity against human HeLa cells assessed as reduction in cell viability incubated for 48 hrs by MTT assay; assay type: functional, cell-based
[3] = Selectivity ratio, ratio of IC50 for cytotoxicity against human HUVEC cells to IC50 for antiproliferative activity against human MHCC97H cells; assay type: toxicity, cell-based; details: HUVEC cells versus MHCC97H cells, read-out: Ratio IC50
[4] = Selectivity ratio, ratio of IC50 for cytotoxicity against human L02 cells to IC50 for antiproliferative activity against human MHCC97H cells; assay type: toxicity, cell-based; details: L02 cells versus MHCC97H cells, read-out: Ratio IC50
[5] = test system: NCI/ADR-RES; assay: Antiproliferative activity against adriamycin resistant human MCF7/ADR cells assessed as reduction in cell viability incubated for 48 hrs by MTT assay; assay type: functional, cell-based
[6] = Resistance index, ratio of IC50 for antiproliferative activity against adriamycin resistant human MCF7/ADR cells to IC50 for antiproliferative activity against human MCF7 cells; assay type: functional
[7] = test system: MHCC97H; assay: Induction of morphological changes in human MHCC97H cells assessed as cell shrinkage at 5 to 50 nM incubated for 48 hrs by phase contrast microscopic analysis; assay type: functional, cell-based; details: dose 5-50 nM
[8] = test system: MHCC97H; assay: Induction of morphological changes in human MHCC97H cells assessed as membrane blebbing at 5 to 50 nM incubated for 48 hrs by phase contrast microscopic analysis; assay type: functional, cell-based; details: dose 5-50 nM
[9] = test system: MHCC97H; assay: Induction of morphological changes in human MHCC97H cells assessed as loss of adherent property at 5 to 50 nM incubated for 48 hrs by phase contrast microscopic analysis; assay type: functional, cell-based; details: dose 5-50 nM
[10] = molecular target: T1, Tubulin (Homo sapiens) (UniProt P68371+Q9H4B7+P0DPH7+P68366+Q13509+Q71U36+P04350+Q3ZCM7+P07437+P68363+Q9BQE3+Q6PEY2+Q13885+Q9BVA1+Q9BUF5); assay: Inhibition of colchicine binding to tubulin (unknown origin) at 0.156 uM by competitive binding assay relative to control; assay type: protein-complex assay
[11] = molecular target: T1, Tubulin (Homo sapiens); assay: Inhibition of colchicine binding to tubulin (unknown origin) at 0.312 uM by competitive binding assay relative to control; assay type: protein-complex assay
[12] = molecular target: T1, Tubulin (Homo sapiens); assay: Inhibition of colchicine binding to tubulin (unknown origin) at 5.0 uM by competitive binding assay relative to control; assay type: protein-complex assay
[13] = molecular target: T1, Tubulin (Homo sapiens); assay: Induction of microtubule disruption in human MHCC97H cells assessed as occurence of cell shrinkage at 10 nM measured after 8 hrs by immunofluorescence based confocal microscopic analysis
[14] = test system: MHCC97H; assay: Induction of cell cycle arrest in human MHCC97H cells assessed as increase in accumulation of cells at G2/M phase at 5 to 50 nM measured after 48 hrs by propidium iodide staining based flow cytometry; assay type: functional; details: dose 5-50 nM
[15] = test system: MHCC97H; assay: Induction of cell cycle arrest in human MHCC97H cells assessed as decrease in accumulation of cells at G1 phase at 5 to 50 nM measured after 48 hrs by propidium iodide staining based flow cytometry; assay type: functional; details: dose 5-50 nM
[16] = Inhibition of TrxR (unknown origin) using DTNB as substrate incubated for 5 mins in presence of NADPH followed by substrate addition by microplate reader analysis; design: species or system Homo sapiens
[17] = species: Homo sapiens; assay: Irreversible inhibition of TrxR (unknown origin) using DTNB as substrate at 2.5 uM incubated for 2 hrs in presence of NADPH followed by substrate addition ultrafiltration based microplate reader analysis relative to control
[18] = species: Homo sapiens; assay: Irreversible inhibition of TrxR (unknown origin) using DTNB as substrate at 10 uM incubated for 2 hrs in presence of NADPH followed by substrate addition ultrafiltration based microplate reader analysis relative to control
[19] = test system: HCT-8/VCR; assay: Downregulation of TrxR in vincristine resistant human HCT-8/VCR cells at 10 to 50 nM incubated for 48 hrs by Western blot analysis; assay type: functional, cell-based; details: dose 10-50 nM
[20] = test system: MHCC97H; assay: Induction of ROS production in human MHCC97H cells assessed as increase in accumulation ROS level at 5 to 50 nM incubated for 4 hrs by DCFH-DA staining based fluorescence microscopy; assay type: functional, cell-based; details: dose 5-50 nM
[21] = test system: MHCC97H; assay: Induction of oxidative stress in human MHCC97H cells assessed as increase in superoxide anion level at 5 to 50 nM incubated for 4 hrs by DHE based fluorescence microscopy; assay type: functional, cell-based; details: dose 5-50 nM
[22] = test system: MHCC97H; assay: Induction of apoptosis in human MHCC97H cells assessed as decrease in MMP level incubated for 24 hrs by JC-1 staining based fluorescence microscopy; assay type: functional, cell-based; details: dose 5-50 nM, DDE = dose-dependent effect
[23] = test system: MHCC97H; assay: Induction of apoptosis in human MHCC97H cells assessed as chromatin condensation at 5 to 50 nM incubated for 24 hrs by Hoechst 33342 staining based fluorescence microscopy; assay type: functional, cell-based; details: dose 5-50 nM
[24] = test system: MHCC97H; assay: Induction of apoptosis in human MHCC97H cells assessed as increase in total apoptotic cells incubated for 24 to 48 hrs by Annexin V-FITC/PI staining based flow cytometry method; assay type: functional, cell-based; details: dose 5-50 nM, time 24-48 hrs, DDE = dose-dependent effect
[25] = test system: MHCC97H; assay: Induction of apoptosis in human MHCC97H cells assessed as increase in total apoptotic cells at 5 to 50 nM by Annexin V-FITC/PI staining based flow cytometry method; assay type: functional, cell-based; details: dose 5-50 nM, time 24-48 hrs, TDE = time-dependent effect
[26] = test system: MHCC97H; assay: Induction of apoptosis in human MHCC97H cells assessed as upregulation of Bax expression measured after 24 to 48 hrs by Western blot analysis; assay type: functional, cell-based; details: dose 5-50 nM, time 24-48 hrs, DDE = dose-dependent effect
[27] = test system: MHCC97H; assay: Induction of apoptosis in human MHCC97H cells assessed as upregulation of Bad expression measured after 24 to 48 hrs by Western blot analysis; assay type: functional, cell-based; details: dose 5-50 nM, time 24-48 hrs, DDE = dose-dependent effect
[28] = Toxicity in BALB/c mouse xenografted with human MHCC97H cells assessed as change in body weight at 30 mg/kg, ip administered every other day for 30 days; assay type: organism-based; details: in vivo, 720 h, time 30 day
[29] = species: Homo sapiens; assay: Inhibition of TrxR (unknown origin) assessed as alkylation of TrxR by measuring weak band intensity using BIAM as substrate at 10 to 40 uM preincubated for 2 hrs in presence of NADPH followed by substrate addition and measured after 30 mins by Western blot analysis; details: dose 10-40 µM, time 2.5 hrs
[30] = test system: MHCC97H; assay: Antitumor activity against human MHCC97H cells xenografted in BALB/c mouse assessed as tumor weight at 30 mg/kg, ip administered every other day for 30 days; assay type: functional; details: time 30 day
[31] = test system: MHCC97H; assay: Antitumor activity against human MHCC97H cells xenografted in BALB/c mouse assessed as tumor volume at 30 mg/kg, ip administered every other day for 30 days; assay type: functional; details: time 30 day
[32] = species: Homo sapiens; assay: Mixed type inhibition of TrxR (unknown origin) using various concentrations of DTNB as substrate at 1.875 to 15 uM preincubated for 15 mins followed by substrate addition by double reciprocal Lineweaver-Burk plot analysis; details: dose 1.875-15 µM
[33] = molecular target: T1, Tubulin (Homo sapiens); assay: Binding affinity to tubulin (unknown origin) assessed as reduction in peak area in the filtrate at 30 uM incubated for 1 hr by HPLC analysis; assay type: protein-complex assay
[34] = molecular target: T1, Tubulin (Homo sapiens); assay: Induction of microtubule disruption in human MHCC97H cells assessed as occurence of cell shrinkage at 10 nM incubated for 8 hrs followed by compound washout and measured after 24 hrs by immunofluorescence based confocal microscopic analysis

Question: Which IC50 [1] does the source give for `COc1ccc2c(/C=C(\C)C(=O)c3cc(OC)c(OC)c([Se]C)c3)c[nH]c2c1` here?
Answer: The IC50 was 8 nM.

Question: What about the IC50 [2] of the same molecule?
Answer: Its IC50 is 21 nM.

Question: And the selectivity ratio [3]?
Answer: Its selectivity ratio is 9.33.

Question: And the selectivity ratio [4]?
Answer: The selectivity ratio was 66.3.

Question: What about the IC50 [5] of the same molecule?
Answer: Its IC50 is 18 nM.

Question: What about the “Ratio IC50” value [6] of the same molecule?
Answer: The value was 0.51.

Question: What about the Activity [7] of the same molecule?
Answer: Its Activity is “Active”.

Question: What about the Activity [8] of the same molecule?
Answer: The Activity was “Active”.

Question: And the Activity [9]?
Answer: Its Activity is “Active”.

Question: What about the inhibition [10] of the same molecule?
Answer: Its inhibition is 24.9%.

Question: And the inhibition [11]?
Answer: Its inhibition is 30.7%.

Question: What about the inhibition [12] of the same molecule?
Answer: The inhibition was 86.8%.

Question: And the Activity [13]?
Answer: Its Activity is “Active”.

Question: And the Activity [14]?
Answer: Its Activity is “Active”.

Question: And the Activity [15]?
Answer: The Activity was “Active”.

Question: What about the IC50 [16] of the same molecule?
Answer: Its IC50 is 3730 nM.

Question: What about the inhibition [17] of the same molecule?
Answer: Its inhibition is 58.4%.

Question: What about the inhibition [18] of the same molecule?
Answer: Its inhibition is 91.4%.

Question: And the Activity [19]?
Answer: The Activity was “Active”.

Question: And the Activity [20]?
Answer: The Activity was “Active”.

Question: What about the Activity [21] of the same molecule?
Answer: Its Activity is “Active”.

Question: What about the Activity [22] of the same molecule?
Answer: Its Activity is “Dde”.

Question: And the Activity [23]?
Answer: Its Activity is “Active”.

Question: What about the Activity [24] of the same molecule?
Answer: The Activity was “Dde”.

Question: What about the Activity [25] of the same molecule?
Answer: Its Activity is “Tde”.

Question: And the Activity [26]?
Answer: Its Activity is “Dde”.

Question: What about the Activity [27] of the same molecule?
Answer: The Activity was “Dde”.

Question: What about the Activity [28] of the same molecule?
Answer: The Activity was “Non-Toxic”.

Question: And the inhibition [29]?
Answer: Its inhibition is “Active”.

Question: And the Activity [30]?
Answer: Its Activity is 0.453 g.

Question: And the Activity [31]?
Answer: The Activity was 419.7 mm3.

Question: And the inhibition [32]?
Answer: The inhibition was “Active”.

Question: And the Activity [33]?
Answer: The Activity was “Active”.

Question: And the Activity [34]?
Answer: Its Activity is “Active”.
